Earlier results, collected in PMC12691659 (Antimicrobial Agents and Chemotherapy, 2025).

What was measured:
[1] = human, in vivo; cited from earlier work
[2] = human, in vivo; cited from earlier work; remark: listed apart in the source
[3] = in vivo; cited from earlier work
[4] = in vivo, cited from earlier work
Source text: Its retrospective, uncontrolled design limits the ability to establish causal relationships. The adherence to co-prescribing treatments could not be verified. […] Overexposure definition was based on Cmin rather than AUC, because the latter is still not widely available in routine TDM.

P-glycoprotein (P-gp) = settings: cited from earlier work

CCCCCCCCCC(=O)N[C@@H](Cc1c[nH]c2ccccc12)C(=O)N[C@H](CC(N)=O)C(=O)N[C@@H](CC(=O)O)C(=O)N[C@@H]1C(=O)NCC(=O)N[C@@H](CCCN)C(=O)N[C@@H](CC(=O)O)C(=O)N[C@H](C)C(=O)N[C@@H](CC(=O)O)C(=O)NCC(=O)N[C@H](CO)C(=O)N[C@@H]([C@H](C)CC(=O)O)C(=O)N[C@@H](CC(=O)c2ccccc2N)C(=O)O[C@@H]1C [daptomycin]
CLDAP, population final estimate [1]: 0.365 L/h | Q, population final estimate [1]: 0.752 L/h | V1, population final estimate [1]: 3.59 L | V2, population final estimate [1]: 4.71 L | γCL [1]: 0.193 | γV1 [1]: 0.24 | θ1 (CL, CLCR) [1]: 0.43 | θ2 (CL, Sex) [1]: 0.232 | θ3 (V1, Age) [1]: 0.263 | θ4 (V1, WT) [1]: 0.603 | θ6 (V1, Sex) [1]: 0.117 | ωCL [1]: 0.196 | ωQ [1]: 1.13 | ωV1 [1]: 0.123 | ωV2 [1]: 0.29 | Increase of AUC in morbidly obese subjects [2]: 60% | Increase of Cmax in morbidly obese subjects [2]: 60% | Dose excreted unchanged by the kidneys [3]: 78% | Cmin associated with an increased risk of CPK elevation ([4]; 6 mg/kg): > 24300 ng/mL | AUC associated with increased risk of adverse events [4]: > 939 µg·h/mL | Cmin associated with increased risk of adverse events [4]: > 24000 ng/mL

CCCCC1=NC2(CCCC2)C(=O)N1Cc1ccc(-c2ccccc2-c2nnn[nH]2)cc1 [irbesartan]
Dose eliminated unchanged in the urine [3]: Up to 20% | Inhibition of the transport of digoxin, a known P-gp substrate (P-glycoprotein (P-gp)): inhibit the transport of digoxin | P-glycoprotein substrate status (P-glycoprotein (P-gp); renal efflux transporter): substrate of P-glycoprotein

CCCc1nc2c(C)cc(-c3nc4ccccc4n3C)cc2n1Cc1ccc(-c2ccccc2C(=O)O)cc1 [telmisartan]
Inhibition of the transport of digoxin, a known P-gp substrate (P-glycoprotein (P-gp)): inhibit the transport of digoxin
